The supplement of paper PMC10307832

Columns and labels:
Experiment in all cases: relative viability (nuclei count vs DMSO), 5 days (fraction); higher = more cells survive
[1] = compound: C(C(=O)C(=O)O)Br [Bromopyruvate] + CC(=O)Nc1cccc(-n2c(=O)n(C3CC3)c(=O)c3c(Nc4ccc(I)cc4F)n(C)c(=O)c(C)c32)c1 [Trametinib] (partner 0.02 µM)
Outline: (§1)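 After 5 days of treatment, lung cancer cells in 1536-well plates were fixed and stained in a single step (final 0.05% Triton X-100, 1% formaldehyde, 1 ug/ml Hoechst) and their nuclei counted on 4× images. Treatment had been applied by pin tool the day after seeding as one drug alone or as a fixed anchor-drug dose with five library-drug doses (not always all listed) in √10 steps. Relative viability is the nuclei count of treated wells divided by that of vehicle wells, and values are medians of duplicate plates.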

Bicalutamide = compound: CC(O)(CS(=O)(=O)c1ccc(F)cc1)C(=O)Nc1ccc(C#N)c(C(F)(F)F)c1 [Bicalutamide]
Outline: (§2)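 Nuclei counted with MetaXpress define viability as the ratio of treated to vehicle wells, given as a median across plates. The lung cancer cell lines were in 1536-well plates, pinned with five √10-spaced library-drug doses and imaged at 4× after 5 days and Hoechst staining. Plates passed with control CV below 25% and at least one doubling.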

Bromopyruvate = compound: C(C(=O)C(=O)O)Br [Bromopyruvate]
Outline: as §2

[2] = compound: CC(O)(CS(=O)(=O)c1ccc(F)cc1)C(=O)Nc1ccc(C#N)c(C(F)(F)F)c1 [Bicalutamide] + CC1(C)CCC(c2ccc(Cl)cc2)=C(CN2CCN(c3ccc(C(=O)NS(=O)(=O)c4ccc(N[C@H](CCN5CCOCC5)CSc5ccccc5)c(S(=O)(=O)C(F)(F)F)c4)cc3)CC2)C1 [Navitoclax] (partner 0.5 µM)
Outline: as §1

Cell Line | relative viability ([1]; first compound 1 µM) | relative viability ([1]; first compound 3.162 µM) | relative viability ([1]; first compound 10 µM) | relative viability ([1]; first compound 31.62 µM) | relative viability ([1]; first compound 100 µM) | relative viability (Bicalutamide; 0.08 µM) | relative viability (Bicalutamide; 0.253 µM) | relative viability (Bicalutamide; 0.8 µM) | relative viability (Bicalutamide; 2.53 µM) | relative viability (Bromopyruvate; 1 µM) | relative viability (Bromopyruvate; 3.162 µM) | relative viability (Bromopyruvate; 10 µM) | relative viability (Bromopyruvate; 31.62 µM) | relative viability (Bromopyruvate; 100 µM) | relative viability ([2]; first compound 0.08 µM) | relative viability ([2]; first compound 0.253 µM) | relative viability ([2]; first compound 0.8 µM) | relative viability ([2]; first compound 2.53 µM)
NCI-H2342 | 0.757 | 0.912 | 0.779 | 0.696 | 0.736 | 1.06 | 0.978 | 1.07 | 1.03 | 0.975 | 0.912 | 1.02 | 0.949 | 0.903 | – | – | – | –
SK-MES-1 | 0.631 | 0.547 | 0.511 | 0.578 | 0.574 | 1.02 | 0.961 | 1.09 | 0.971 | 0.99 | 1.07 | 1.12 | 0.958 | 1.05 | 1.13 | 1.19 | 1.26 | 1.17
NCI-H1993 | 0.52 | 0.561 | 0.493 | 0.533 | 0.535 | 0.896 | 0.811 | 0.987 | 0.996 | 0.833 | 1.01 | 1.1 | 0.945 | 0.951 | – | 0.896 | 0.912 | 1.02
HCC-366 | 0.361 | 0.322 | 0.41 | 0.359 | 0.322 | 1.01 | 0.95 | 1.06 | 1.01 | 0.996 | 0.979 | 1.05 | 1.02 | 0.998 | 1.08 | 1.03 | 1.17 | 1.02
201T | 0.709 | 0.719 | 0.709 | 0.725 | 0.755 | 1.02 | 0.932 | 1.02 | 1.01 | 1.03 | 0.983 | 1.04 | 0.946 | 0.997 | 1.18 | 1.24 | 1.18 | 1.22
HCC-827 | 0.51 | 0.542 | 0.579 | 0.551 | 0.568 | 1.08 | 0.842 | 1.07 | 1.03 | 1.04 | 1.02 | 0.988 | 1.06 | 1.07 | 1.04 | 0.971 | 1.02 | 1.02
NCI-H650 | 0.971 | 1.02 | 0.928 | 0.955 | 0.991 | 1.08 | 1.03 | 1.11 | 0.837 | 0.944 | 1 | 0.98 | 0.887 | 0.895 | – | – | – | –
NCI-H2085 | 0.559 | 0.685 | 0.516 | 0.563 | 0.341 | 1.01 | 0.955 | 1.01 | 0.94 | 1 | 1.04 | 1.03 | 1.07 | 1.02 | 1.19 | 1.17 | 1.22 | 0.902
NCI-H596 | 0.743 | 0.84 | 0.789 | 0.74 | 0.845 | 0.956 | 0.953 | 1.07 | 1.12 | 1.09 | 0.982 | 1.03 | 0.862 | 1.12 | 1.03 | 0.847 | 1.24 | 1.15
SK-LU-1 | 0.503 | 0.469 | 0.599 | 0.467 | 0.538 | 1.11 | 1.02 | 1.23 | 1.02 | 1.07 | 0.93 | 1.2 | 0.935 | 0.943 | 1.04 | 1.04 | 1.38 | 0.902
A-427 | 0.73 | 0.766 | 0.838 | 0.767 | 0.771 | 0.996 | 1.02 | 1.17 | 0.869 | 1.05 | 1.09 | 1.16 | 0.967 | 1.1 | 0.986 | 1.03 | 0.98 | 0.927
NCI-H460 | 0.164 | 0.101 | 0.132 | 0.18 | 0.235 | 0.974 | 0.952 | 1.07 | 0.988 | 0.99 | 0.972 | 1.13 | 1 | 1.01 | 1.13 | 1.1 | 1.39 | 1.22
NCI-H1703 | – | – | – | – | – | 0.941 | 1.01 | 0.983 | 0.738 | 0.914 | 0.981 | 0.955 | 0.94 | 0.778 | 0.998 | 0.985 | 1.45 | 0.484
NCI-H1792 | 0.392 | 0.448 | 0.382 | 0.364 | 0.435 | 0.987 | 0.779 | 1.19 | 0.962 | 1.14 | 1.21 | 0.805 | 0.811 | 0.928 | 0.5 | 0.619 | 0.77 | 0.674
Calu-6 | – | – | – | – | – | 1.09 | 0.989 | 1.07 | 0.987 | 0.934 | 0.995 | 1.12 | 0.994 | 0.809 | 0.895 | 0.827 | 0.842 | 0.705
SW 1573 | 0.582 | 0.576 | 0.608 | 0.432 | 0.0469 | 1.02 | 0.757 | 1.15 | 0.969 | 1.03 | 0.995 | 1.13 | 0.925 | 0.385 | 0.908 | 0.914 | 1.17 | 1.16
RERF-LC-KJ | 0.657 | 0.984 | 0.921 | 0.85 | 0.909 | 1.01 | 0.985 | 1.15 | 0.982 | 1.04 | 1.02 | 1.13 | 1.02 | 0.98 | 0.951 | 0.98 | 0.793 | 0.799

Cell Line | relative viability ([1]; first compound 1 µM) | relative viability ([1]; first compound 3.162 µM) | relative viability ([1]; first compound 10 µM) | relative viability ([1]; first compound 31.62 µM) | relative viability ([1]; first compound 100 µM) | relative viability (Bicalutamide; 0.08 µM) | relative viability (Bicalutamide; 0.253 µM) | relative viability (Bicalutamide; 0.8 µM) | relative viability (Bicalutamide; 2.53 µM) | relative viability (Bromopyruvate; 1 µM) | relative viability (Bromopyruvate; 3.162 µM) | relative viability (Bromopyruvate; 10 µM) | relative viability (Bromopyruvate; 31.62 µM) | relative viability (Bromopyruvate; 100 µM) | relative viability ([2]; first compound 0.08 µM) | relative viability ([2]; first compound 0.253 µM) | relative viability ([2]; first compound 0.8 µM) | relative viability ([2]; first compound 2.53 µM)
EMC-BAC-2 | 0.753 | 1.01 | 0.985 | – | 0.959 | 1.03 | 0.894 | 1.05 | 0.822 | 0.982 | 0.933 | 0.986 | 0.804 | 1.01 | 1.19 | 1.11 | 1.21 | 1.16
LK-2 | 0.742 | 0.92 | 0.872 | 0.782 | 0.519 | 0.961 | 0.825 | 1.31 | 1.02 | 0.98 | 1.02 | 1.11 | 0.936 | 0.832 | 0.844 | 0.798 | 1.18 | 0.841
NCI-H2228 | 0.472 | 0.505 | 0.548 | 0.514 | 0.538 | 0.798 | 0.967 | 1.56 | 1.09 | 1.07 | 1.04 | 1.27 | 0.851 | 1.02 | 0.636 | 0.863 | 0.856 | 0.959
NCI-H322M | 0.525 | 0.537 | 0.517 | 0.536 | 0.5 | 0.969 | 0.941 | 1.05 | 1.06 | 0.93 | 0.956 | 0.865 | 0.94 | 1.04 | 1.3 | 1.18 | 1.28 | 1.22
NCI-H1299 | – | – | – | – | – | 1.01 | 1.04 | 1.05 | 1 | 1.01 | 1 | 1.04 | 0.968 | 0.983 | 1.02 | 1.04 | 1.03 | 1.04
LCLC-103H | 0.681 | 0.692 | 0.696 | 0.693 | 0.767 | 0.986 | 0.971 | 1.08 | 0.918 | 0.953 | 0.992 | 1.11 | 0.994 | 0.976 | – | – | – | –
ABC-1 | – | – | – | – | – | 0.998 | 0.857 | 0.951 | 0.943 | 1.14 | 0.935 | 0.807 | 0.995 | 0.945 | – | – | – | –
NCI-H661 | 0.546 | 0.588 | 0.579 | 0.523 | 0.603 | 0.987 | 0.998 | 1.04 | 1.01 | 1.02 | 0.992 | 1.02 | 1.01 | 0.972 | – | – | – | –
NCI-H1648 | 0.349 | 0.413 | 0.472 | 0.545 | 0.482 | – | 0.662 | 0.93 | 1.2 | 0.878 | 0.916 | 0.991 | 0.769 | 0.773 | – | – | – | –
NCI-H1563 | – | – | – | – | – | 0.965 | 0.978 | 1.01 | 0.852 | 0.952 | 0.97 | 0.973 | 0.926 | 0.987 | – | – | – | –
A549 | – | – | – | – | – | 0.974 | 0.875 | 1.16 | 0.973 | 0.942 | 0.969 | 1.18 | 0.95 | 1.06 | 1.33 | 1.16 | 1.36 | 1.08
NCI-H522 | 0.697 | 0.671 | 0.778 | 0.92 | 0.757 | 1.07 | 0.828 | 0.999 | 0.991 | 1.06 | 0.975 | 0.941 | 0.939 | 0.785 | – | – | – | –
NCI-H1623 | – | – | – | – | – | 0.628 | 0.89 | 0.969 | 0.904 | 1.07 | 0.944 | 1.25 | 0.973 | 0.948 | – | – | – | –
SW 900 | 0.865 | 0.76 | 0.92 | 0.729 | 0.739 | 0.847 | 0.858 | 0.9 | 0.742 | 0.923 | 0.774 | 0.754 | 0.881 | 0.883 | – | – | – | –
IA-LM | – | – | – | – | – | 1.02 | 0.936 | 1.18 | 0.95 | 1.03 | 0.96 | 0.983 | 0.884 | 0.924 | 0.945 | 0.876 | 0.99 | 0.751
NCI-H358 | 0.145 | 0.132 | 0.139 | 0.128 | 0.133 | 0.988 | 0.865 | 1.13 | 1.06 | 1.03 | 1.02 | 0.939 | 0.909 | 0.929 | – | – | – | –
EBC-1 | – | – | – | – | – | 0.977 | 1.02 | 1.1 | 0.976 | 0.912 | 0.94 | 1.14 | 0.935 | 0.987 | 0.477 | 0.491 | 0.372 | 0.296
